Results reported in PubChem BioAssay (NCI).
Values joined by “and” are separate entries in the source; they are usually repeats but may differ in a detail not shown here. Equal entries are not always repeated.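 Results reflect a 48-hour exposure of cells in 96-well plates to compound at five concentrations. GI50: concentration for 50% inhibition of growth. Definition used: TGI = concentration required for complete inhibition of growth.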

Columns and labels:
Assay in all cases: DTP human tumour cell line panel, 48 h
SW-620 colon = system: SW-620 colon
COLO 205 colon = system: COLO 205 colon
SN12C renal = system: SN12C renal
SK-OV-3 ovarian = system: SK-OV-3 ovarian
IGROV1 ovarian = system: IGROV1 ovarian
SR leukemia = system: SR leukemia
A498 renal = system: A498 renal
OVCAR-4 ovarian = system: OVCAR-4 ovarian
HCT-116 colon = system: HCT-116 colon
SF-268 CNS = system: SF-268 CNS
MOLT-4 leukemia = system: MOLT-4 leukemia
CCRF-CEM leukemia = system: CCRF-CEM leukemia
UACC-62 melanoma = system: UACC-62 melanoma
SK-MEL-5 melanoma = system: SK-MEL-5 melanoma
OVCAR-8 ovarian = system: OVCAR-8 ovarian
OVCAR-5 ovarian = system: OVCAR-5 ovarian
K-562 leukemia = system: K-562 leukemia
NCI/ADR-RES ovarian = system: NCI/ADR-RES ovarian
MALME-3M melanoma = system: MALME-3M melanoma
NCI-H522 lung = system: NCI-H522 lung
BT-549 breast = system: BT-549 breast
SK-MEL-2 melanoma = system: SK-MEL-2 melanoma
OVCAR-3 ovarian = system: OVCAR-3 ovarian
U251 CNS = system: U251 CNS
NCI-H23 lung = system: NCI-H23 lung
SNB-19 CNS = system: SNB-19 CNS
DU-145 prostate = system: DU-145 prostate
KM12 colon = system: KM12 colon
MCF7 breast = system: MCF7 breast
HL-60(TB) leukemia = system: HL-60(TB) leukemia
M14 melanoma = system: M14 melanoma
786-0 renal = system: 786-0 renal
NCI-H460 lung = system: NCI-H460 lung
HOP-62 NSCLC = system: HOP-62 NSCLC
UACC-257 melanoma = system: UACC-257 melanoma
HS 578T breast = system: HS 578T breast
PC-3 prostate = system: PC-3 prostate
HCC-2998 colon = system: HCC-2998 colon
CAKI-1 renal = system: CAKI-1 renal
HCT-15 colon = system: HCT-15 colon
T-47D breast = system: T-47D breast
ACHN renal = system: ACHN renal
HOP-92 NSCLC = system: HOP-92 NSCLC
TK-10 renal = system: TK-10 renal
MDA-MB-435 = system: MDA-MB-435
SF-539 CNS = system: SF-539 CNS
RPMI-8226 leukemia = system: RPMI-8226 leukemia
SK-MEL-28 melanoma = system: SK-MEL-28 melanoma
UO-31 renal = system: UO-31 renal
SF-295 CNS = system: SF-295 CNS
NCI-H226 lung = system: NCI-H226 lung
LOX IMVI melanoma = system: LOX IMVI melanoma
MDA-MB-231 breast = system: MDA-MB-231 breast
MDA-N = system: MDA-N
A549 NSCLC = system: A549 NSCLC
SNB-75 CNS = system: SNB-75 CNS
RXF 393 renal = system: RXF 393 renal
EKVX NSCLC = system: EKVX NSCLC
HT29 colon = system: HT29 colon

COc1ccc(/C=C/C(=O)OC2CC34CCNC35CC(OC5(OC)C2OC)c2ccc(OC)c(O)c24)cc1O (centres undefined)
TGI (SW-620 colon): > 100 µM | GI50 (COLO 205 colon): 18.4 µM and > 100 µM | TGI (COLO 205 colon): 35.7 µM and > 100 µM | TGI (SN12C renal): > 100 µM | TGI (SK-OV-3 ovarian): > 100 µM | TGI (IGROV1 ovarian): > 100 µM | GI50 (SR leukemia): 25.4 µM and > 100 µM | TGI (SR leukemia): > 100 µM | TGI (A498 renal): > 100 µM | TGI (OVCAR-4 ovarian): > 100 µM | GI50 (HCT-116 colon): 47.2 µM and > 100 µM | TGI (HCT-116 colon): > 100 µM | TGI (SF-268 CNS): > 100 µM | GI50 (MOLT-4 leukemia): 22.4 µM and > 100 µM | TGI (MOLT-4 leukemia): 93.1 µM and > 100 µM | GI50 (CCRF-CEM leukemia): 30.8 µM and > 100 µM | TGI (CCRF-CEM leukemia): > 100 µM | TGI (UACC-62 melanoma): > 100 µM | TGI (SK-MEL-5 melanoma): > 100 µM | TGI (OVCAR-8 ovarian): > 100 µM | TGI (OVCAR-5 ovarian): > 100 µM | GI50 (K-562 leukemia): 33.7 µM and > 100 µM | TGI (K-562 leukemia): > 100 µM | TGI (NCI/ADR-RES ovarian): > 100 µM | GI50 (MALME-3M melanoma): 11.3 µM and > 100 µM | TGI (MALME-3M melanoma): 50.9 µM and > 100 µM | GI50 (NCI-H522 lung): 49.6 µM and > 100 µM | TGI (NCI-H522 lung): > 100 µM | TGI (BT-549 breast): > 100 µM | TGI (SK-MEL-2 melanoma): > 100 µM | GI50 (OVCAR-3 ovarian): 35.5 µM and > 100 µM | TGI (OVCAR-3 ovarian): > 100 µM | GI50 (U251 CNS): 38.2 µM and > 100 µM | TGI (U251 CNS): > 100 µM | TGI (NCI-H23 lung): > 100 µM | TGI (SNB-19 CNS): > 100 µM | TGI (DU-145 prostate): > 100 µM | GI50 (KM12 colon): 31.6 µM and > 100 µM | TGI (KM12 colon): > 100 µM | TGI (MCF7 breast): > 100 µM | TGI (HL-60(TB) leukemia): 62.8 µM | TGI (M14 melanoma): > 100 µM | GI50 (786-0 renal): 22.2 µM and > 100 µM | TGI (786-0 renal): 52.3 µM and > 100 µM | TGI (NCI-H460 lung): > 100 µM | TGI (HOP-62 NSCLC): > 100 µM | TGI (UACC-257 melanoma): > 100 µM | TGI (HS 578T breast): > 100 µM | GI50 (PC-3 prostate): 38.9 µM and > 100 µM | TGI (PC-3 prostate): > 100 µM | GI50 (HCC-2998 colon): 30.6 µM and > 100 µM | TGI (HCC-2998 colon): 94.2 µM and > 100 µM | TGI (CAKI-1 renal): > 100 µM | TGI (HCT-15 colon): > 100 µM | TGI (T-47D breast): > 100 µM | TGI (ACHN renal): > 100 µM | TGI (HOP-92 NSCLC): > 100 µM | TGI (TK-10 renal): > 100 µM | TGI (MDA-MB-435): > 100 µM | TGI (SF-539 CNS): > 100 µM | GI50 (RPMI-8226 leukemia): 34.6 µM and > 100 µM | TGI (RPMI-8226 leukemia): > 100 µM | TGI (SK-MEL-28 melanoma): > 100 µM | TGI (UO-31 renal): > 100 µM | TGI (SF-295 CNS): > 100 µM | TGI (NCI-H226 lung): > 100 µM | GI50 (LOX IMVI melanoma): 30.4 µM and > 100 µM | TGI (LOX IMVI melanoma): 76.5 µM and > 100 µM | GI50 (MDA-MB-231 breast): 49.7 µM and > 100 µM | TGI (MDA-MB-231 breast): > 100 µM | TGI (MDA-N): > 100 µM | TGI (A549 NSCLC): > 100 µM | GI50 (SNB-75 CNS): 14 µM and > 100 µM | TGI (SNB-75 CNS): 92.7 µM and > 100 µM | GI50 (RXF 393 renal): 21.6 µM and > 100 µM | TGI (RXF 393 renal): 65.6 µM and > 100 µM | TGI (EKVX NSCLC): > 100 µM | GI50 (HT29 colon): 19.7 µM and > 100 µM | TGI (HT29 colon): 43.6 µM and > 100 µM
